Results on one substance are retold here after PMC11410249 (PLOS ONE, 2024).

Common to all, as to format: biochemical
In one assay the target is T1, 5-lipoxygenase (5-LO) (Homo sapiens, UniProt P09917).
T1 construct: gene ALOX5; full-length human 5-LO
T1 sequence (P09917 1-674): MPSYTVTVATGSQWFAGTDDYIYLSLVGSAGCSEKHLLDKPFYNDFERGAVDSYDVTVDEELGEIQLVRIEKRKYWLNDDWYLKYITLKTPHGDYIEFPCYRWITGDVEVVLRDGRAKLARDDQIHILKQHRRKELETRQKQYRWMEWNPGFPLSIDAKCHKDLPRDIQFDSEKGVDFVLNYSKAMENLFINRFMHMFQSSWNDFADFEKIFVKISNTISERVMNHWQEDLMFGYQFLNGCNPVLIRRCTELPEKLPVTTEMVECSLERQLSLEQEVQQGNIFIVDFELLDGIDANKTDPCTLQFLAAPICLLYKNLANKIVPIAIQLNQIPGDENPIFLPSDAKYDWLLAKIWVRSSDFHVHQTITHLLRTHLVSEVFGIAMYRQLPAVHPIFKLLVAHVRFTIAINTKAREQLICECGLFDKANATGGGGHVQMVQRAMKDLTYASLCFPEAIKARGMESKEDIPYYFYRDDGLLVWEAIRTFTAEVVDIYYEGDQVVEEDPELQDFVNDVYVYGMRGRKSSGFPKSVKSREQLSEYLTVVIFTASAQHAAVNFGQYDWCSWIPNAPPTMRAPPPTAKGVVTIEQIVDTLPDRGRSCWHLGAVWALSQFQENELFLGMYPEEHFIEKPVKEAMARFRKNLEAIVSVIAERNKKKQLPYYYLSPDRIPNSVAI
Nature of the assay: LC-MS/MS activity assay in lysate of 5-LO-transfected Expi293F cells, […] arachidonic acid.

The target in another assay is T2, cyclooxygenase (COX-2) (Homo sapiens, UniProt P35354).
T2 construct: gene PTGS2
T2 sequence (P35354 18-604): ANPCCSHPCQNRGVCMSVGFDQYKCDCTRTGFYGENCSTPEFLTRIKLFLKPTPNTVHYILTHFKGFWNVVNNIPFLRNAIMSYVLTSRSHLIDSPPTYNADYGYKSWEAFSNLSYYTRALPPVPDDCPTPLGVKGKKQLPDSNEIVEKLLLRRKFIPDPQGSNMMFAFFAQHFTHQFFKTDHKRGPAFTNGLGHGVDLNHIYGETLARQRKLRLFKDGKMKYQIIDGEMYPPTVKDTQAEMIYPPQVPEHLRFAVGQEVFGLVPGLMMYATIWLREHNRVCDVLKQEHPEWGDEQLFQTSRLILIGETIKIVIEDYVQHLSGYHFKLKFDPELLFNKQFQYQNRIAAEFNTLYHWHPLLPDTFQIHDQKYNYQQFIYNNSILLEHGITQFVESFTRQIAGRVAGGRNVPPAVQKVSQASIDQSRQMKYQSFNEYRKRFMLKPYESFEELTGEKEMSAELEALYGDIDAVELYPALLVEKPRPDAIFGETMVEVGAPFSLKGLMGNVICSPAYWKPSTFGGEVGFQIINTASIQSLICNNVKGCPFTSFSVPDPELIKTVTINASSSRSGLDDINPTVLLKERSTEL
Nature of the assay: in vitro enzyme activity assay (product formation by LC-MS/MS).

The target of another assay is T3, 12-LO (Homo sapiens, UniProt P18054).
T3 construct: gene ALOX12
T3 sequence (P18054 1-663): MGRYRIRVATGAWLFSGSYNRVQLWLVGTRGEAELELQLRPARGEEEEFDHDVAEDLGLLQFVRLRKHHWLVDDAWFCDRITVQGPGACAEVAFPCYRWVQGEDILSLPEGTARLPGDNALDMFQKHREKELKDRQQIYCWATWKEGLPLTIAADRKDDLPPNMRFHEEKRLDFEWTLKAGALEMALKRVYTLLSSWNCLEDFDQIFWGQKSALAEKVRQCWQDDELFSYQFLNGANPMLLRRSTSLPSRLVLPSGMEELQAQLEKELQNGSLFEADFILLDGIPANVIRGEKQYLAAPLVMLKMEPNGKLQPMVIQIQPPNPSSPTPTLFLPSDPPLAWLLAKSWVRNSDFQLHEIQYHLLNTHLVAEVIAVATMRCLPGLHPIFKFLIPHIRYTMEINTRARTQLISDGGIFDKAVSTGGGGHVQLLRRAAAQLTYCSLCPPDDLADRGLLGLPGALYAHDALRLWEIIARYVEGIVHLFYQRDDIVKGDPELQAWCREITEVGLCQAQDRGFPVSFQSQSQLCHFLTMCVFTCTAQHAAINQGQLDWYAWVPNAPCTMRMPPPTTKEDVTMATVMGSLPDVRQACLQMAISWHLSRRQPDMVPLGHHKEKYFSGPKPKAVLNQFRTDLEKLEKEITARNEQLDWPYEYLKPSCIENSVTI
Nature of the assay: LC-MS/MS enzyme activity assay, […] enzyme, […] arachidonic acid.

Another assay deals with T4, 15-lipoxygenase (15-LO) (Homo sapiens, UniProt P16050).
T4 construct: gene ALOX15
T4 sequence (P16050 2-662): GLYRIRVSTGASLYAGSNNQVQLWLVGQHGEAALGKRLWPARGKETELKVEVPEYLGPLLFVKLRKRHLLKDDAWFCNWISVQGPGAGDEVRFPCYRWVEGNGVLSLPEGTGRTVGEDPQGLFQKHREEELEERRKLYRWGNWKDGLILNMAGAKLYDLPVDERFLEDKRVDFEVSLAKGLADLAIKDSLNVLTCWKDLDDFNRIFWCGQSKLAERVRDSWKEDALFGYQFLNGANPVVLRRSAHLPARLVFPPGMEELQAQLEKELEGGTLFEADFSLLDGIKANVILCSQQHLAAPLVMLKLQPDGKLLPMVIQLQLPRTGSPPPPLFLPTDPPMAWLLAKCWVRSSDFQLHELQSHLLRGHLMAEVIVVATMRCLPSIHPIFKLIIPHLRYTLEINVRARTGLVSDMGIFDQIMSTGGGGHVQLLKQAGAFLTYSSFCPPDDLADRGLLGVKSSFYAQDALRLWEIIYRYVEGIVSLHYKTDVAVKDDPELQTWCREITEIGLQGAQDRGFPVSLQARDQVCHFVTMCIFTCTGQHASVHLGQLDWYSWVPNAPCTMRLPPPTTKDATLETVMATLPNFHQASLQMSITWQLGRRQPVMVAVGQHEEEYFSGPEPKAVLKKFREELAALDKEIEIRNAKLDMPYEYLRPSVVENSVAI
The assay is described as above.

As a reminder, the IC50 is the point on the concentration scale where inhibition reaches its midpoint. High values mean a need for much substance, low ones inhibition by little substance. In the case of PTC-041 hydroquinone, the IC50 against 5-lipoxygenase (5-LO) was 460 nM; at cyclooxygenase (COX-2), 9.6 µM; against 12-LO it was 5.2 µM; at 15-lipoxygenase (15-LO) it was 950 nM.
